According to paper PMC8162405:

Assay: Double amide coupling of bis-quinoline diacid with diamine (bis-indole diamine 5, or 1,5-pentanediamine for the precursor of 17); TCFH (4 equiv), N-methylimidazole (8 equiv); diamine (ca. 1.1-1.2 equiv, 6 mM in DMF) added at 20 uL/min to the activated diacid; intermolecular amide first, then intramolecular amide closure
Conditions: the molecule shown is the open-chain precursor, 2.0 mM

`Nc1ccc2[nH]cc(Cc3c[nH]c4ccc(NC(=O)c5cnc6ccc(NC(=O)CCCCC(=O)Nc7ccc8ncc(C(=O)O)cc8c7)cc6c5)cc34)c2c1` [13a2 (from 12a2 + 5)] gave a ring closure, isolated yield (31-membered ring) of 21%.
`Nc1ccc2[nH]cc(Cc3c[nH]c4ccc(NC(=O)c5cnc6cc(NC(=O)CCCCCCCC(=O)Nc7ccc8cc(C(=O)O)cnc8c7)ccc6c5)cc34)c2c1` [13b5 (from 12b5 + 5)] showed a ring closure, isolated yield (36-membered ring) of 23%.
In the case of `NCCCCCNC(=O)c1cnc2ccc(NC(=O)CCCCC(=O)Nc3ccc4ncc(C(=O)O)cc4c3)cc2c1` [precursor of 17 (from 12a2 + 1,5-pentanediamine)], the ring closure, isolated yield (27-membered ring) is reported as 15%.
`Nc1ccc2[nH]cc(Cc3c[nH]c4ccc(NC(=O)c5cnc6cc(NC(=O)CCCCCCC(=O)Nc7ccc8cc(C(=O)O)cnc8c7)ccc6c5)cc34)c2c1` [13b4 (from 12b4 + 5)] showed a ring closure, isolated yield (35-membered ring) of 27%.
For `CC(C)(C)OC(=O)N(CC(=O)Nc1ccc2ncc(C(=O)O)cc2c1)CC(=O)Nc1ccc2ncc(C(=O)Nc3ccc4[nH]cc(Cc5c[nH]c6ccc(N)cc56)c4c3)cc2c1` [13a1 (from 12a1 + 5)], the ring closure, isolated yield (30-membered ring) was 23%.
For `Nc1ccc2[nH]cc(Cc3c[nH]c4ccc(NC(=O)c5cnc6ccc(NC(=O)CCCCCCC(=O)Nc7ccc8ncc(C(=O)O)cc8c7)cc6c5)cc34)c2c1` [13a4 (from 12a4 + 5)], the ring closure, isolated yield (33-membered ring) was 21%.
For `Nc1ccc2[nH]cc(Cc3c[nH]c4ccc(NC(=O)c5cnc6ccc(NC(=O)CCCCCC(=O)Nc7ccc8ncc(C(=O)O)cc8c7)cc6c5)cc34)c2c1` [13a3 (from 12a3 + 5)], the ring closure, isolated yield (32-membered ring) was 20%.
With `CC(C)(C)OC(=O)N(CCC(=O)Nc1ccc2cc(C(=O)O)cnc2c1)CCC(=O)Nc1ccc2cc(C(=O)Nc3ccc4[nH]cc(Cc5c[nH]c6ccc(N)cc56)c4c3)cnc2c1` [13b1 (from 12b1 + 5)] the ring closure, isolated yield (34-membered ring) was 21%.
For `Nc1ccc2[nH]cc(Cc3c[nH]c4ccc(NC(=O)c5cnc6cc(NC(=O)CCCCCC(=O)Nc7ccc8cc(C(=O)O)cnc8c7)ccc6c5)cc34)c2c1` [13b3 (from 12b3 + 5)], the ring closure, isolated yield (34-membered ring) was 20%.
In the case of `Nc1ccc2[nH]cc(Cc3c[nH]c4ccc(NC(=O)c5cnc6cc(NC(=O)CCCCC(=O)Nc7ccc8cc(C(=O)O)cnc8c7)ccc6c5)cc34)c2c1` [13b2 (from 12b2 + 5)], the ring closure, isolated yield (33-membered ring) is reported as 21%.
